Here are results for six compounds from PMC3707170, “Polyketides from a Marine-Derived Fungus Xylariaceae sp” (Marine Drugs, 2013).

≈ marks a conversion by molar mass, not a printed value. Like-named read-outs stand apart in the source and are kept apart here.

The target in data set [1] is T1, cathepsin B (Homo sapiens, UniProt P07858).
T1 construct: cathepsin B from human liver (Sigma); purchased Sigma; host or cells: human liver (tissue-purified)
As to the kind of experiment: Cathepsin B activity assay (fluorogenic Z-Arg-Arg-AMC substrate). Format: biochemical. As to conditions: cathepsin B from human liver; read-out: IC50, inhibitory activity towards cathepsin B. As for the experimental part: (§1) Enzyme-inhibitory activity assays were tested according to literatures reported.
Figure S32. IR spectrum of 8-methoxy-1-naphthyl-1-(6′-O-acetyl)-α-glucopyranoside (10).
S1. Enzyme Inhibitory Assay
S1.1. Cathepsin B Activity Assay
The assay was performed in 96-well plate according to a published method with modification.
Brifely, 50 μL reaction buffer (100 mM sodium acetate (pH 5.5), 1 mM EDTA, 4 mM dithiothreitol) containing 0.0025 unit of cathepsin B from human liver (Sigma, one unit will liberate 1 nanomole of 7-amino-4-methylcoumarin from Z-Arg-Arg 7-amido-4-methylcoumarin per min at pH 6.0 at 40 °C) and 2 μL test compounds dissolved in DMSO were added to each well of a 96-well plate. After preincubation for 15 min at room temperature, 50 μL of reaction buffer containing 100 μM Z-Arg-Arg-7-amido-4-methylcoumarin (Sigma) was added and incubated for 30 min at room temperature.
Fluorescence was measured using a microplate reader (Wallac 1420 Victor 2, PerkinElmer, HolIand) with an excitation of 355 nm and emission at 460 nm.
His-taged human IMPDH П was recombinantly expressed in Escherichia coli and purified by Ni-NTA affinity chromotagraphy as described previously. The IMPDH activity assay was performed in 200-μL assay volume of 96-well plate. Briefly, 2 μL of test compound (dissolved in DMSO) or DMSO and 150 μL enzyme buffer containing 100 mM KH2PO4, 0.5 mM EDTA pH 8, and 2 mM dithiothreitol and 50 nM IMPDH were added into the plate and incubated at 37 °C for 15 min. The reaction was initiated by adding 50 μL reaction buffer containing a final concentration of 200 μM inosine 5-monophosphate (Sigma) and 200 μM NAD (Sigma). The OD was read at 340 nm after incubation at 37 °C for 30 min with a microplate reader (Wallac 1420 Victor 2, PerkinElmer, HolIand).
(1 picture or pasted object on this page, not shown here)

For data set [2], the target named is T2, IMPDH (Homo sapiens, UniProt P12268).
T2 construct: His tag; made in house; host or cells: Escherichia coli
The data set is described as follows: IMPDH enzyme assay (OD at 340 nm). The class given is biochemical. The settings on record: recombinant human IMPDH II; read-out: IC50, inhibitory activity towards IMPDH.

The target in data set [3] is T3, SHP2 (Homo sapiens, UniProt Q06124).
T3 construct: made in house; host or cells: E. coli
T3 sequence (Q06124 1-593): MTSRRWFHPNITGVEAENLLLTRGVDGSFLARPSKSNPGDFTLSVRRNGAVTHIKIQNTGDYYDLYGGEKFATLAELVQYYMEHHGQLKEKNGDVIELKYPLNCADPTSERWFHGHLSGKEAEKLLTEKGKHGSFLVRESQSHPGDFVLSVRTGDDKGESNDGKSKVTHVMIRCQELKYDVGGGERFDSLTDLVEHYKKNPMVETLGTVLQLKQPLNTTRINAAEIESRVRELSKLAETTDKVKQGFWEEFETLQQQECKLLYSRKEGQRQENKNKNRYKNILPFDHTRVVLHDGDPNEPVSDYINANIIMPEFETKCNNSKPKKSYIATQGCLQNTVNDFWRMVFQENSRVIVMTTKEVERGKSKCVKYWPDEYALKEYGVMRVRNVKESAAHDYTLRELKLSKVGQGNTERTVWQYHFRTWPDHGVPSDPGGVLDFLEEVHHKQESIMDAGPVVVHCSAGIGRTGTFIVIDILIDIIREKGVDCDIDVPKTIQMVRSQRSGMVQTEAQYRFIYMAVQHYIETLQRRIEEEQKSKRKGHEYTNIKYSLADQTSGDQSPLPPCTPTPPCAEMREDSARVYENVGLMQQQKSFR
As to the kind of experiment: SHP2 activity assay (pNPP substrate). Format: biochemical. As to conditions: human recombinant enzyme, read-out: IC50, inhibitory activity towards SHP2. As to the method: as §1
S1.3. PTP1B and SHP2 Activity Assays
Human recombinant PTP1B and SHP2 were expressed in E. coli and purifed by Ni-NTA affinity chromotagraphy in our laboratory, respectively. The enzyme activity was measured using p-nitrophenyl phosphate (pNPP) as substrate in a 96-well plate. Brifely, purified recombinant PTP1B or SHP2 (0.05 μg) in 50 μL buffer containing 50 mM citrate (pH 6.0), 0.1 M NaCl, 1 mM EDTA, and 1 mM dithiothreitol (DTT) and test compounds were added to each well of a 96-well plate. After preincubation for 15 min at room temperature, 50 μL of reaction buffer containing 2 mM pNPP was added and incubated at 37 °C for 30 min. The PTP1B or SHP2 activity was measured by detecting the absorbance at 405 nm for the amount of produced p-nitrophenol.
(§2) S2. Larval Settlement Bioassays
(§3) Antifouling activity of compounds was evaluated in settlement inhibition assays with laboratory-reared B. neritina larvae. Larval settlement bioassays were performed using sterile 24-well polystyrene plates as previously reported. Briefly, the stock solution of tested samples in DMSO was diluted with autoclaved filtered sea water (FSW) to concentrations ranging from 1 to 300 ppm. Then the EC50 and LC50 values of active compounds were calculated. In this way, about 20 competent larvae were added to each well in 1 mL of the test solution. Wells containing only FSW with DMSO served as the controls.
(§4) Three replicates of each treatment were used. The plates were incubated at 27 °C for 1 h. The percentage of larval settlement was determined by counting the settled, live individuals under a dissecting microscope and expressing the result as a proportion of the total number of larvae in the well. EC50 (inhibits 50% of settlement of B. neritina larvae in comparison with the control) and LC50 (refers to the concentration that kills 50% of the test organisms in comparison with the control) levels of active compounds were calculated by using the Excel software program.

The test system of data set [4] is Bugula neritina larvae. The data set is described as follows: Larval settlement (antifouling) bioassay. As to conditions: for LC50/EC50: B. neritina larvae, ratio of lethal to settlement-inhibiting concentration; for EC50: Bugula neritina, 1 h, read-out: EC50, antifouling activity against B. neritina larvae settlement. As to the method:
Larval culture and larval settlement assays matched the method reported in reference. […]
as §2, §3, §4

Data set [5] concerns the target T4, PTPlB (Homo sapiens, UniProt P18031).
T4 construct: made in house; host or cells: E. coli
T4 sequence (P18031 1-435): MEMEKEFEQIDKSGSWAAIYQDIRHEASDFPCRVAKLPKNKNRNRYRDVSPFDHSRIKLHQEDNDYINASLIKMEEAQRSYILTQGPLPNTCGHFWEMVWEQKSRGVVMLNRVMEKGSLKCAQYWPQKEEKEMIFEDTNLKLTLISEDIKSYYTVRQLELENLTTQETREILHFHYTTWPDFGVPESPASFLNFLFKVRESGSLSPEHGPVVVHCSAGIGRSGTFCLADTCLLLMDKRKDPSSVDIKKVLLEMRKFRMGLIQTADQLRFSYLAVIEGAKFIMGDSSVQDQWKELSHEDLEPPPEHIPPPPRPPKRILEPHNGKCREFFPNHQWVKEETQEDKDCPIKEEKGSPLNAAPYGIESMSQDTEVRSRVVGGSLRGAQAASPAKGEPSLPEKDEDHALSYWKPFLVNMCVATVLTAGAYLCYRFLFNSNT
The data set is described as follows: PTP1B activity assay (pNPP substrate). Format: biochemical. As to conditions: human recombinant enzyme, read-out: IC50, inhibitory activity towards PTPlB.

On the set-up of data set [6]: method as in doi:10.1016/j.tet.2009.02.054. The settings on record: previous studies ref 23; cited from earlier work.

In general, IC50 refers to the midpoint of a concentration-inhibition curve. Turning to `Cc1c(O)c(C(=O)O)c(O)c2c1[C@H](C)[C@@H](C)OC2=O` [Compound 4, dihydrocitrinone], in data set [1], the IC50 came out at 28.5 ± 1.7 µM.
The term EC50 denotes the concentration at which the effect is half-maximal. For the compound `Cc1c2c(c3oc4cc(=O)c(C)c5c-4c(c3c1O)O[C@H](C)[C@H]5C)O[C@H](C)[C@H]2C` [Compound 6, dicitrinin A], the IC50 in data set [2] turned out to be 98.7 ± 6.2 µM. The IC50 in data set [3] amounted to 58.4 ± 4 µM. For the same compound, in data set [4], the LC50/EC50 was greater than 56 and the EC50 was 1.76 ± 0.8 µg/mL (≈ 4.63 µM).
In the case of `Cc1c([C@H](C)[C@@H](C)O)cc(O)c(C(=O)O)c1O` [Compound 7, phenol A acid], in data set [1], the IC50 was 20.4 ± 1.9 µM. For the same compound, the LC50/EC50 in data set [4] is greater than 15. Besides, the concentration giving a half-maximal response (EC50) in data set [4] (27 °C) worked out at 14.3 ± 1.72 µg/mL (≈ 59.7 µM).
For `O=C1C[C@@H](O)[C@@H](O)c2cccc(O)c21` [Compound 17, (3R,4S)-(+)-4-hydroxy-6-deoxyscytalone], the IC50 in data set [2] was determined as 41.2 ± 3.6 µM; in data set [5], 13.9 ± 1.8 µM; in data set [3], 4.1 ± 0.6 µM. In addition, the “phytotoxicity (in words)” value in data set [6] is recorded as “phytotoxic substance”.
In the case of `CC(=O)N[C@@H](CC(C)C)C(=O)N[C@@H](CC(C)C)C(=O)N[C@H](C=O)CCCNC(=N)N` [leupeptin, reference compound], the IC50 in data set [1] came to 0.03 µM.
As for `C[C@H]1[C@H](C)CC[C@]2(C(=O)O)CC[C@]3(C)C(=CC[C@@H]4[C@@]5(C)CC[C@H](O)C(C)(C)[C@@H]5CC[C@]43C)[C@H]12` [ursolic acid, reference compound], the IC50 in data set [3] turned out to be 2.8 µM.
